In series [1] the target is T1, TLR4 (Mus musculus, UniProt Q9QUK6).
T1 sequence (Q9QUK6 26-835): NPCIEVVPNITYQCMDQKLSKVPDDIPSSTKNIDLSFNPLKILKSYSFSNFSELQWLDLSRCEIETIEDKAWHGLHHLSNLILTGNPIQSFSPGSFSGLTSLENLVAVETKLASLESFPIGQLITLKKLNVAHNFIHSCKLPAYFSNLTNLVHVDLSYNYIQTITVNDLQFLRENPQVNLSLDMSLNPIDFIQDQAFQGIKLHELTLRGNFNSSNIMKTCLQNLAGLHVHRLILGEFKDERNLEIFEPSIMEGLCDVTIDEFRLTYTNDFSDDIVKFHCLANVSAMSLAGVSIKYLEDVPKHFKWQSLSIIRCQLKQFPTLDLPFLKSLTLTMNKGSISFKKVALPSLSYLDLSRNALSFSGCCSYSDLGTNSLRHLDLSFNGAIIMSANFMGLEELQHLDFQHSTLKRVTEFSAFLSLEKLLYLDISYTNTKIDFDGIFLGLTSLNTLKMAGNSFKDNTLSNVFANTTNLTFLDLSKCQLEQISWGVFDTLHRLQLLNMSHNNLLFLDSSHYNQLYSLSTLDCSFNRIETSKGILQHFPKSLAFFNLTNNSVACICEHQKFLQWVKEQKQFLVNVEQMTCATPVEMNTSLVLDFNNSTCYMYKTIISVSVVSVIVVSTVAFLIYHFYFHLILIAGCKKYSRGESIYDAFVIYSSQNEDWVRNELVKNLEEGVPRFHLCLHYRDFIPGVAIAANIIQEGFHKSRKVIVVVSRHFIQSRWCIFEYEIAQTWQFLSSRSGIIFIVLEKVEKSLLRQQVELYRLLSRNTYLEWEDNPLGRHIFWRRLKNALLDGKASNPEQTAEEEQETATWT
T1 sequence (Q9JHF9 19-160 partner): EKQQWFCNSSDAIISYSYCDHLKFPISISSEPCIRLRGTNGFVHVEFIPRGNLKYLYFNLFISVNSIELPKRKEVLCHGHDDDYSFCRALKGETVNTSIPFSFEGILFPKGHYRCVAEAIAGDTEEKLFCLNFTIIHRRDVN
Briefly: LPS-induced TNFα in immortalised murine macrophages, ELISA. It is filed as cell-based. Also noted: endogenous in cells; immortalised murine bone-marrow-derived macrophages. The conditions noted are these: 6 h; for inhibition of LPS-induced mTNFα production: peptide 1, 5 or 25 μM 1 h before 10 ng/ml LPS. The protocol: (§1) FIGS. 14A and B are bar charts showing the comparison of the inhibitory effect of the L- and D-forms of A464 on LPS-induced TNFα in primary human and murine cells. PBMC (1×10^6 cells/ml, (A)) or immortalised murine macrophages (1.5×10^5 cells/ml, (B)) were seeded in 96 well plates 24 hours before treatment. L-form and D-form A464 peptides (with the 9R delivery peptide on the C-terminus, SEQ ID NO. 20) were added to the cells at a concentration of 1, 5 or 25 μM 1 hour before stimulating with 10 ng/ml LPS. Supernatants were collected 6 hours after stimulation and assayed for either human (A) or murine (B) TNFα production by ELISA. No peptides were added to the control wells (black bars). Data is representative of at least three experiments each performed in triplicate and is expressed as mean±s.d;
(§2) FIGS. 15A and B are bar charts showing the effect of the D-form A464 peptide with the TAT delivery sequence on LPS induced TNFα in primary human and murine cells. PBMC (A) and immortalised murine macrophages (B) were seeded in 96 well plates 24 hours before treatment. D-form of A467 (SEQ ID NO. 37) and A464 (SEQ ID NO. 36) with the TAT delivery sequence were added to the cells at a concentration of 1, 5 or 25 μM 1 hour before stimulating with 10 ng/ml LPS. The peptides were added into the unstimulated control wells at 25 μM. Supernatants were collected 6 hours after stimulation and assayed for either human (A) or murine (B) TNFα production by ELISA. No peptides were added to the control wells (black bars). Data is representative of at least three experiments each performed in triplicate and is expressed as mean±s.d;
(§3) FIGS. 16A and B are bar charts showing the effect of attaching 9R to the N-terminus of A464 on LPS-induced TNFα in primary human and murine cells. Immortalised murine macrophages (A) and PBMC (B) were seeded in 96 well plates 24 hours before treatment. L-form of A467 (SEQ ID NO. 39) and A464 (SEQ ID NO. 38) with the 9R-delivery sequence at the N-terminus were added to the cells at a concentration of 1, 5 or 25 μM 1 hour before stimulating with 10 ng/ml LPS. The peptides were added into the unstimulated control wells at […]. Supernatants were collected 6 hours after stimulation and assayed for either murine (A) or human (B) TNFα production by ELISA. No peptides were added to the control wells (black bars). Data is representative of at least three experiments each performed in triplicate and is expressed as mean±s.d;
(§4) FIGS. 17A and B are bar charts showing the effect of the D-form A464 with 9R at the N-terminus on LPS-induced TNFα in primary human and murine cells. Immortalised murine macrophages (A) and PBMC (B) were seeded in 96 well plates 24 hours before treatment. D-form of A467 (SEQ ID NO. 39) and A464 (SEQ ID NO. 38) peptides with the 9R-delivery sequence at N-terminus were added to the cells at a concentration of 1, 5 or 25 μM 1 hour before stimulating with 10 ng/ml LPS. The peptides were added into the unstimulated control wells at 25 μM. Supernatants were collected 6 hours after stimulation and assayed for either murine (A) or human (B) TNFα production by ELISA. No peptides were added to the control wells (black bars). Data is representative of at least three experiments each performed in triplicate and is expressed as mean±s.d;
FIGS. 18A and B are bar charts showing the effect of shortened A464 peptides with deletions of N- and C-terminal amino acids on LPS-induced TNFα in murine macrophages. Immortalised murine macrophages were seeded in 96 well plates (1.5×10^5 cells/ml) 24 hours before treatment. A464 peptides with a deletion of one (N-1) (SEQ ID NO. 40) or two (N-2) (SEQ ID NO. 41) amino acids from the N-terminus (A), or three (C-3) (SEQ ID NO. 42) or six (C-6) (SEQ ID NO. 43) amino acids from the C-terminus (B), were added to the cells at a concentration of 1, 5 or 25 μM 1 hour before stimulating with 10 ng/ml LPS. Peptides were added to the control wells at 25 μM. […]

The test system of series [2] is TLR4. Kind of series: LPS-induced TNFα in primary human PBMC, ELISA. It is filed as cell-based. Particulars: 6 h; for inhibition of LPS-induced hTNFα production: peptide 1, 5 or 25 μM 1 h before 10 ng/ml LPS; for inhibitory potential compared to parental A464 (alanine scan): peptide 5 μM, 10 ng/ml LPS. How it is done: FIGS. 13A and B are bar charts showing the effect of A467 and A464 on LPS-induced TNFα production and on cell viability in primary human cells. Peripheral blood mononuclear cells (PBMCs) were seeded in 96 well plates (1 ×10^6 cells/ml) 24 hours before treatment. A467 (SEQ ID NO. 23) and A464 (SEQ ID NO. 20) were added to the cells at 1, 5 and 25 μM 1 hour before stimulating with 10 ng/ml LPS. The peptides were added into the unstimulated control wells at 25 μM. Supernatants were collected 6 hours after stimulation and assayed for TNFα production by ELISA (A). The cells were assayed for viability by the MTT assay (B). No peptides were added to the control wells (black bars). Data is representative of at least three experiments each performed in triplicate and is expressed as mean±s.d;
as §1, §2, §3
as §4, with “Data is representative of at least three experiments each performed in triplicate and is expressed as mean±s.d;” left out
On the technique in general: An ELISA detects its analyte on a solid surface through an enzyme-linked reagent.

The subject of the next series is cell viability. Kind of series: MTT cell viability assay, more detailed investigation of screening hits. Particulars: cell type not stated. It counts as cell-based. How it is done: Cell viability was measured by assessing mitochondrial function using an MTT (3-(4,5-Dimethylthiazol-2-yl)-2,5-diphenyltetrazolium bromide) assay. Cells were seeded into 96 well plates and treated with peptides and agonists as described above in relation to the Figs. Wells containing medium only served as a blank control. To terminate treatment of cells, medium was removed and the cells were washed once with PBS. 200 μl per well of 1 mg/ml MTT in PBS was added directly to the cells and the plates were incubated at 37° C. for 14-16 hrs in the dark. MTT was then removed and 200 μl per well of dimethyl sulphoxide (DMSO) was added and cells incubated for 20 min at 37° C. in the dark, prior to absorbance being read at 595 nm on a spectrophotometer.
For orientation: Formazan colour is commonly taken as a measure of viable cells.

Series [3] has as its target T1, TLR4. Kind of series: LPS-induced TNFα in RAW264.7 cells, ELISA. It counts as cell-based, murine. Also noted: endogenous in cells; host or cells: RAW264.7; immortalised murine bone-marrow-derived macrophages. Particulars: peptide 5 or 25 μM 1 h before 10 ng/ml LPS, 6 h, A464 5 μM as positive control. The protocol:
FIGS. 5A and B are bar charts showing the dose-dependent inhibitory effect of A464R on LPS-induced TNFα in murine RAW264.7 cells. A464 (SEQ ID NO. 20) was added to the cells at a concentration of 5, 20 or 50 μM 1 hour before stimulating with 100 ng/ml LPS. Supernatant was collected 24 hours after stimulation and assayed for TNFα by ELISA (A) and cells were assayed for viability by the MTT assay (B.). No peptides were added to the control wells (black bars). Data is representative of at least three experiments each performed in triplicate and is expressed as mean±s.d;
FIGS. 6A and B are bar charts showing the effect of peptides derived from A46 on LPS-induced TNFα in murine RAW264.7 cells. A46 peptides were added to the cells at a concentration of 1 or 5 μM 1 hour before stimulating with 10 ng/ml LPS. Supernatants were collected 6 hours after stimulation and assayed for TNFα by ELISA. No peptides were added into the control wells (black bars). (A) peptides A461-A467 (SEQ ID NO. 17 to 23). (B) peptides A468-A4614 (SEQ ID NO. 24 to 30) (excluding A4610 SEQ ID NO. 26 and A4612 SEQ ID NO. 28). Data is representative of at least two experiments each performed in triplicate and is expressed as mean±s.d;
FIGS. 22 A and B are bar charts showing the effect of short A467 and A464 peptides, with 9R on either N- or C-terminus, on LPS- induced TNFα production in murine RAW264.7 cells. Cells were seeded in 96 well plates (1.5×10^5 cells/ml) 24 hours before treatment. Short A467 and short A464 peptides with the 9R delivery sequence on either the C-terminus (sA464C9R) (SEQ ID NO. 56) (A) or the N-terminus (sA464N9R) (SEQ ID NO. 57) (B) were added to the cells at a concentration of 5 or 25 μM 1 hour before stimulating with 10 ng/ml LPS. Normal full length A467 (SEQ ID NO. 23) and A464 (SEQ ID NO. 20) peptides were added at a concentration of 5 μM as positive controls. Supernatants were collected 6 hours after stimulation with the agonist and assayed for TNFα, by ELISA. No peptides were added to the control wells (black bars). Data is representative of at least three experiments each performed in triplicate and is expressed as mean±s.d;
Cytokine and chemokine production from cells or mouse serum was measured by ELISA using Duoset kits from R&D systems, according to the manufacturer's instructions.

Square brackets hold non-standard residues; d marks the D form. Ends that are not written are not given here.

Here are results for twelve substances from US8722052B2, “Vaccinia virus protein A46 peptide and use thereof” (priority 2008, dated 2014).

In the case of “D-A464-TAT ([dK][dY][dS][dF][dK][dL][dI][dL][dA][dE][dY][dY]G[dR][dK][dK][dR][dR][dQ][dR][dR][dR])”, the “inhibition of LPS-induced mTNFα production” value in the series with TLR4 [1] was “still inhibited, but only at 5-25 μM”. Besides, the “inhibition of LPS-induced hTNFα production” value in the series with TLR4 [2] is “failed to inhibit LPS-induced hTNFα production at 1-25 μM”.

Consider DFVNFVKDMICRRRRRRRRR [Peptide A4610], for which the “cell viability (MTT assay)” value with cell viability is on record as “reduced cell viability”.

DSGLFDFVNFVRRRRRRRRR [Peptide A469]: in the series with cell viability, the “cell viability (MTT assay)” value is “reduced cell viability”.

As for “KYSAKLILAEY-9R (KYSAKLILAEYRRRRRRRRR) [Peptide F4A]”, the “inhibitory potential compared to parental A464 (alanine scan)” value with TLR4 [2] is reported as “reduced inhibitory potential”.

With “KYSFALILAEY-9R (KYSFALILAEYRRRRRRRRR) [Peptide K5A]”, the “inhibitory potential compared to parental A464 (alanine scan)” value in the series with TLR4 [2] is listed as “reduced inhibitory potential”.

Consider KYSFK-9R [Peptide A464C-6], for which the “inhibition of LPS-induced mTNFα production” value against TLR4 [1] is listed as “lost its ability to inhibit LPS-induced TNFα production”.

For the substance “KYSFKAILAEY-9R (KYSFKAILAEYRRRRRRRRR) [Peptide L6A]”, the “inhibition compared to A464 (alanine scan)” value in the series with TLR4 [1] (peptide 5 μM, 10 ng/ml LPS) is on record as “reduced inhibition”. The “inhibitory potential compared to parental A464 (alanine scan)” value with TLR4 [2] was “reduced inhibitory potential”.

For “KYSFKLALAEY-9R (KYSFKLALAEYRRRRRRRRR) [Peptide I7A]”, the “inhibitory potential compared to parental A464 (alanine scan)” value with TLR4 [2] is “reduced inhibitory potential”.

As for KYSFKLILAEYRRRRRRRRR [D-A464], the “inhibition of LPS-induced mTNFα production” value against TLR4 [1] is “complete inhibition at 1”. The “inhibition of LPS-induced hTNFα production” value with TLR4 [2] is given as “only blocked TNFα secretion at 25 μM”.

TYLYNKYSFKLRRRRRRRRR [Peptide A463]: in the series with cell viability, the “cell viability (MTT assay)” value is “reduced cell viability”.

Regarding sA464C9R (SFKLILRRRRRRRRR), the “inhibition of LPS-induced TNFα by short peptides” value with TLR4 [3] is on record as “only when the delivery sequence was at the N-terminus”.

Consider sA464N9R (RRRRRRRRRSFKLIL), for which, in the series with TLR4 [3], the “inhibition of LPS-induced TNFα by short peptides” value was “inhibited LPS-induced TNFα production as potently as A464 (SEQ ID No. 20) at 5 μM”.
